Experimental data from PubChem BioAssay (NCI).
Where “and” joins values, the source holds several entries; their conditions need not be identical. Identical values can stand only once.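 Where inhibition never reached the appropriate level, the endpoint shown equals the highest concentration tested. Otherwise, values were interpolated linearly from a five-concentration, 48-hour dose response in 96-well plates. The concentration for 50% growth inhibition is given as GI50. TGI: total growth inhibition.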

Legend:
Assay in all cases: growth of human tumour cells (NCI), 48 h
[1] = test system: U251 CNS
[2] = test system: KM12 colon
[3] = test system: OVCAR-5 ovarian
[4] = test system: OVCAR-8 ovarian
[5] = test system: SK-MEL-5 melanoma
[6] = test system: M14 melanoma
[7] = test system: SNB-75 CNS
[8] = test system: SK-MEL-2 melanoma
[9] = test system: NCI/ADR-RES ovarian
[10] = test system: T-47D breast

Compound	GI50 [1] [µM]	TGI [1] [µM]	GI50 [2] [µM]	TGI [2]	GI50 [3] [µM]	TGI [3]	GI50 [4] [µM]	TGI [4] [µM]	GI50 [5] [µM]	TGI [5]	GI50 [6] [µM]	TGI [6]	GI50 [7] [µM]	TGI [7] [µM]	GI50 [8] [µM]	TGI [8] [µM]	GI50 [9] [µM]	TGI [9] [µM]	GI50 [10] [µM]	TGI [10] [µM]
CCC[CH2][Ge]([CH2]CCC)([CH2]CCC)[O]C(=O)C(OC)c1ccccc1 (stereo unspecified)	31.4	> 100	26.4	> 100 µM	31.5	> 78.3 µM	70.2	> 100	17.5	> 63.1 µM	16.7	49.8 µM	41.1	> 100	42.4	> 100	–	–	–	–
Cc1ccc(C2(O)CC(c3ccc([N+](=O)[O-])o3)=NN2C(=O)COc2ccccc2Cl)cc1 (stereo unspecified)	–	28.2	–	> 100 µM	–	> 91.8 µM	–	> 100	–	8.54 µM	–	15.4 µM	–	> 75.4	–	26.4	–	–	–	–
NCCCC1NC(=O)/C(=C(O)/C=C/C2CCC[C@@H]2CC2SCCS2)C1=O (stereo partly specified)	–	> 100	–	> 100 µM	–	> 100 µM	–	> 100	–	> 100 µM	–	> 100 µM	–	> 100	–	> 100	–	–	–	–
CCOC(=O)C(Cc1ccccc1)NC(=O)OC(C)(C)C (stereo unspecified)	–	> 100	–	> 100 µM	–	> 100 µM	–	> 100	–	–	–	> 100 µM	–	> 100	–	> 100	–	–	–	–
CCc1ccc(Nc2cc(=O)[nH]c(=S)n2C)cc1	–	> 100	–	> 100 µM	–	> 100 µM	–	> 100	–	> 100 µM	–	> 100 µM	–	> 100	–	> 100	–	–	–	–
Nc1ncnc2c(C3OC(CO)C(O)C3O)scc12 (stereo unspecified)	2.45	> 100	–	0.026 µM	–	0.787 µM and 0.139 µM	–	–	0.0781	4.68 µM and 2.64 µM	–	0.217 µM and 0.277 µM	–	5.5	0.228	2.14	–	–	–	–
CO/N=C(/COc1c(-c2ccccc2)oc2ccccc2c1=O)c1ccc(OC)cc1	> 100	> 100	56.1	> 100 µM	> 100	> 100 µM	> 100	> 100	–	–	> 100	> 100 µM	58.7	> 100	> 100	> 100	76.2	> 100	26.9	> 100
CN(C)CC/C(=N\Nc1ccc(Cl)c(Cl)c1)c1ccccc1	–	3.28	–	3.92 µM	–	6.34 µM	–	3.96	–	3.43 µM	–	–	–	7.08	–	–	–	–	–	–
CCC[CH2][Sn]([CH2]CCC)([O]C(=O)c1cc(OC)c(OC)cc1OC)[O]C(=O)c1cc(OC)c(OC)cc1OC	1.35	2.66	1.75	4.07 µM	2.27	4.33 µM	1.48	3.03	1.6	3.18 µM	1.51	2.99 µM	0.402	1.53	1.26	2.54	–	–	–	–
Cc1ccccc1-c1c(N)nc(N)nc1C(=O)Nc1nccs1	–	> 100	–	> 100 µM	–	> 100 µM	–	> 100	–	> 100 µM	–	> 100 µM	–	> 100	–	> 100	–	–	–	–
CCC1(C(=O)OC)CCc2c(OC)ccc(OC)c2C1=O (stereo unspecified)	–	> 100	–	> 100 µM	–	> 100 µM	–	> 100	–	> 100 µM	–	> 100 µM	–	–	–	> 100	–	–	–	–
O=C1[C@@H]2C3SC(c4ccccc43)[C@@H]2C(=O)N1c1ccccc1	–	> 100	–	> 100 µM	–	> 100 µM	–	> 100	–	> 100 µM	–	> 100 µM	–	> 83	–	> 100	–	–	–	–
O=C(CC(=O)Nc1ccccc1O)Nc1ccccc1O	–	> 100	–	> 100 µM	–	> 100 µM	–	> 100	–	22 µM	–	29.7 µM	–	37.2	–	–	–	–	–	–
COc1cc(C(=O)C/C(CCC(=O)Nc2ccc(Cl)cc2Cl)=N/NC(=O)C(N)=O)ccc1O	–	> 100	–	> 100 µM	–	> 100 µM	–	> 100	–	> 100 µM	–	> 100 µM	–	43.7	–	> 100	–	–	–	–
CC(C)(C)OC(=O)NC1CCC[C@H]1O (stereo partly specified)	–	> 100	–	> 100 µM	–	> 100 µM	–	> 100	–	> 100 µM	–	> 100 µM	–	> 100	–	> 100	–	–	–	–
Cc1ccccc1NC(=O)C1C(=O)N(c2ccccc2C)C(=O)/C1=N\N (stereo unspecified)	–	> 100	–	> 100 µM	–	> 100 µM	–	> 100	–	> 100 µM	–	> 100 µM	–	> 100	–	> 100	–	–	–	–
C#C[C@@]1(O)[C@@H](CO)O[C@@H](n2ccc3c(N)ncnc32)[C@@H]1O	2.44	11.8	1.82	10.9 µM	3.1	8.54 µM	1.03	4.11	1.56	2.96 µM	1.42	3 µM	–	–	1.37	6.32	0.791	7.28	0.445	2.14
O=C(/C=C/c1ccccc1O)c1cccnc1	–	> 100	–	> 100 µM	–	> 100 µM	–	> 100	–	> 100 µM	–	> 100 µM	–	> 100	–	> 100	–	–	–	–
CC(=O)OC1CCC2(C)C(CCC3C4CC=C(C(C)=O)C4(C)OC(=O)CC32)C1 (stereo unspecified)	10.1	21.8	9.83	22.7 µM	2.75	7.63 µM	2.13	7.49	2.13	4.95 µM	1.71	3.51 µM	–	–	2.91	8.42	3.45	13	1.64	3.4
Nc1ccc2c(c1)CC1c3ccccc3C(C2)c2ccccc21	–	> 100	–	> 100 µM	–	> 100 µM	–	> 100	–	> 100 µM	–	> 100 µM	–	> 100	–	> 100	–	–	–	–

Compound	GI50 [1] [µM]	TGI [1] [µM]	GI50 [2] [µM]	TGI [2]	GI50 [3] [µM]	TGI [3]	GI50 [4] [µM]	TGI [4] [µM]	GI50 [5] [µM]	TGI [5]	GI50 [6] [µM]	TGI [6]	GI50 [7] [µM]	TGI [7] [µM]	GI50 [8] [µM]	TGI [8] [µM]	GI50 [9] [µM]	TGI [9] [µM]	GI50 [10] [µM]	TGI [10] [µM]
CN(C)CCNC(=O)Cn1ccc(=O)c2ccc([N+](=O)[O-])cc21	–	> 100	–	> 100 µM	–	> 100 µM	–	–	–	> 100 µM	–	> 100 µM	–	–	–	> 100	–	> 100	–	> 100
COc1cc2ccnc(-c3c4ccccc4c(N)c4c(OC)c(OC)ccc34)c2cc1OC	–	14	–	11.3 µM	–	–	–	–	–	12.3 µM	–	–	–	–	–	16.6	–	–	–	–
Cc1ncc(C(=O)Nc2ccc(CN3CCN(C)CC3)c(C(F)(F)F)c2)cc1C#Cc1cnc(N)c2ncccc12	1.07	2.65	–	1.33 µM	0.807	2.81 µM	1.1	4.86	1.02	4.44 µM	–	–	0.3	2.26	0.0783	0.747	1.34	3.76	5.36	27.4
O=C(O)CCCCCO	–	> 100	–	> 100 µM	–	> 100 µM	–	> 100	–	> 100 µM	–	> 100 µM	–	> 100	–	> 100	–	–	–	–
CC1=C(C(=O)CC(=O)C(=O)Nc2ccccc2)Sc2ccccc2N1	–	> 100	–	> 100 µM	–	> 100 µM	–	> 100	–	> 100 µM	–	> 100 µM	–	–	–	> 100	–	–	–	–
N#CCN1CCOCCOCCN(CC#N)CCOCCOCC1	–	–	–	–	–	> 100 µM	–	> 100	–	> 100 µM	–	> 100 µM	–	> 100	–	–	–	–	–	–
CCOC(=O)N1N=NC2C3OC(C[C@@]3(C#N)OC(C)=O)[C@H]21 (stereo partly specified)	–	> 100	–	> 100 µM	–	> 100 µM	–	> 100	–	> 100 µM	–	> 100 µM	–	> 100	–	> 100	–	–	–	–
COc1cc2ccnc3c2c(c1OC)-c1ccc(=O)ccc1-3	27.6	96.9	43.6	> 100 µM	51.7	> 100 µM	13.4	58.8	17.1	47.9 µM	–	–	25.9	80.1	52.6	> 100	17.4	57.6	27.6	65.5
CC(=O)C1C(=O)C(=O)N(c2ccccc2N2C(=O)C(=O)C(C(C)=O)C2=O)C1=O (stereo unspecified)	–	> 100	–	> 100 µM	–	> 100 µM	–	> 100	–	> 100 µM	–	> 100 µM	–	> 100	–	> 100	–	–	–	–
N#Cc1cccc(/C=C(/C(=O)c2ccccc2)c2ccccc2)c1	3.43	12.5	3.31	11.6 µM	11.9	29.1 µM	2.97	25.5	4.04	15.6 µM	4.05	20.8 µM	4.69	17.5	–	–	3.62	> 100	3.78	17.3
CC[C@H](C)[C@H](NC(=O)Nc1ccccc1)C(=O)N(C)[C@H](C[C@@H](OC(C)=O)c1nc(C(=O)N[C@@H](Cc2ccccc2)C[C@H](C)C(=O)OC)cs1)C(C)C	3.16	> 100	2.09	> 100 µM	11.9	> 100 µM	4.69	> 100	1.73	12.4 µM	2.19	5.84 µM	–	–	3.17	> 100	54.2	> 100	–	–
CCN(CC)CCCOc1cc(O)c2c(=O)cc(-c3ccccc3)oc2c1	10.6	22.4	11.7	33.3 µM	13	25.7 µM	–	28.2	3.16	11.8 µM	–	–	8.36	22.3	10.1	27	13.3	27.1	15.5	33.4
COc1cc(/C=C/c2ccc(OC(C)=O)cc2)cc(OC)c1OC	–	> 100	–	> 100 µM	–	68.6 µM	–	> 100	–	34.6 µM	–	> 100 µM	–	–	–	–	–	–	–	–
Cc1ccc(S(=O)(=O)SCc2ccccc2CSS(=O)(=O)c2ccc(C)cc2)cc1	–	89.5	–	> 100 µM	–	–	–	76.5	–	> 100 µM	–	47.3 µM	–	> 100	–	–	–	–	–	–
COc1cc2c(c(OC)c1OC)-c1ccc(SC)c(=O)cc1[C@@H](NCc1cccc(C#N)c1)CC2	–	0.0434	< 0.0075	0.0509 µM and 0.0128 µM	> 75	> 75 µM	< 0.0075	–	–	0.0641 µM	< 0.0075	–	–	0.0568	< 0.0075	< 0.0075	–	–	–	–
CCC[CH2][Ge]([CH2]CCC)([CH2]CCC)[O]C(=O)C(O)c1ccccc1 (stereo unspecified)	2.32	20.3	2.96	17.4 µM	6.27	21.7 µM	10.6	22.4	1.46	13.2 µM	2.51	12 µM	4.51	> 100	–	–	–	–	–	–
CC(=O)Nc1ccccc1-c1cnc2ccccc2n1	–	> 100	–	> 100 µM	–	> 100 µM	–	> 100	–	> 100 µM	–	> 100 µM	–	> 100	–	–	–	–	–	–
COc1ccc(/C=C/C(=O)c2ccc3cc(OC)c(OC)cc3c2)cc1OC	3.33	15.2	2.69	7.95 µM	4.81	> 100 µM	2.56	7.89	2.3	6.61 µM	5.47	21 µM	–	–	11.5	31.6	2.71	8.85	2.93	33.5
O=Cc1ccc(Oc2c3ccccc3nc3occc23)cc1	–	–	8.79	25.4 µM	18.6	89.7 µM	18.3	66.2	–	–	15.9	30.3 µM	19.3	85.2	–	–	15.2	45	11.4	36.3
CC(=O)OC1C/C(C)=C/CCC(C)/C=C/C2(C)CCC(C(C)(C)O)C12 (stereo unspecified)	–	> 100	–	> 100 µM	–	> 100 µM	–	> 100	–	> 100 µM	–	> 100 µM	–	> 100	–	> 100	–	–	–	–
